From article PMC6481345, “A novel anti-melanoma SRC-family kinase inhibitor” (Oncotarget, 2019)
Read-outs that look alike come from different tables or passages of the source.

Key:
CDK4/Cyclin D1 = target: T1, CDK4/Cyclin D1 (Homo sapiens, UniProt P11802); assay: Radioisotope filter activity assay, recombinant kinase; assay type: biochemical; settings: 10 point dose response, 10 µM ATP
T1 construct: purchased Reaction Biology Corporation
Method: (§1) The effect of SAB298 on a panel of 36 recombinant kinases, was screed with the radioisotope filter binding assay employing 10 concentrations of the compound with 10 µM ATP (Reaction Biology Corporation, Malvern, PA). In addition, we tested the endogenous kinome response to SAB298 (0.05 µM, 0.5 µM and 5 µM) in lysates from two melanoma cell lines (YUSIV and YUSIK) employing the KiNativ® platform (ActivX Biosciences Inc., La Jolla, CA). KiNativ® is a robust, high performance mass spectrometry (LC-MS^2) assay that uses biotinylated probes to measure relevant changes in the affinity to the ATP-binding sites of 205 native kinases as a function of cellular context. We also validated SAB298 effect on the activity of SRC-family kinases by probing for phosphorylated Y416, the marker of activated SFKs, with anti-IEDNEpYTAR antibodies (also known as Y419, #2101, Cell Signaling Technology, Beverly, MA). In some cases the cells were incubated overnight with 20 µM proteasome inhibitor MG-132 (CAS 133407-82-6, Millipore Sigma, Burlington, MA) to rescue degradation.
(§2) Supplemntary Table 3: Radioisotope filter activity assay Tests for SAB298 target protein
(§3) *These are results from 10 point dose response test employed with 10 µM ATP. […]
(§4) SRC TRCN0000195339 3ʹUTR […]
(§5) YES TRCN0000001611 CDS […]
(§6) FYN TRCN0000003099 CDS […]
(§7) LY N TRCN0000230901 CDS […]

BRAF = target: T2, BRAF (Homo sapiens, UniProt P15056); assay: as above; assay type: biochemical; settings: 10 point dose response, 10 µM ATP
T2 construct: purchased Reaction Biology Corporation
T2 sequence (P15056 whole entry): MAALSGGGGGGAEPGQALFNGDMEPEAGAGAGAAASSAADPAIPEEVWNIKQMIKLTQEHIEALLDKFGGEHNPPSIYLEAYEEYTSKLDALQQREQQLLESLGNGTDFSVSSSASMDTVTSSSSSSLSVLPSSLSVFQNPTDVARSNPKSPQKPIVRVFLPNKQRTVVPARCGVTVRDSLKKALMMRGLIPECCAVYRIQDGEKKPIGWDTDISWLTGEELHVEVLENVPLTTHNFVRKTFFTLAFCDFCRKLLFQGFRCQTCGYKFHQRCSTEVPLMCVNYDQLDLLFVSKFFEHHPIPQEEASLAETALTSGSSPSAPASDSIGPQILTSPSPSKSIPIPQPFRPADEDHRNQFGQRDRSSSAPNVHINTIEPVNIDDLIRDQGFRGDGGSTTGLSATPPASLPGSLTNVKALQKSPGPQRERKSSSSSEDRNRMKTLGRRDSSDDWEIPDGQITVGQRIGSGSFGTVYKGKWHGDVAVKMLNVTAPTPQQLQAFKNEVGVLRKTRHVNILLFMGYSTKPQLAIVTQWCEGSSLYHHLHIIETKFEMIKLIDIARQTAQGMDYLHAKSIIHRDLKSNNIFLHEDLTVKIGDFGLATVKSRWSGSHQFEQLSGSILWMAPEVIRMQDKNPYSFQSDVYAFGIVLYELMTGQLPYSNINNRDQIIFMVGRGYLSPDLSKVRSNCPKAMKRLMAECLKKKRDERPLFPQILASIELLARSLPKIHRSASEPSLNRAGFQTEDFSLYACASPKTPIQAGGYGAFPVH
Method: as §1, §2, §3, §4, §5, §6, §7

BLK = target: T3, BLK (Homo sapiens, UniProt P51451); assay: as above; assay type: biochemical; settings: 10 point dose response, 10 µM ATP
T3 construct: purchased Reaction Biology Corporation
T3 sequence (P51451 whole entry): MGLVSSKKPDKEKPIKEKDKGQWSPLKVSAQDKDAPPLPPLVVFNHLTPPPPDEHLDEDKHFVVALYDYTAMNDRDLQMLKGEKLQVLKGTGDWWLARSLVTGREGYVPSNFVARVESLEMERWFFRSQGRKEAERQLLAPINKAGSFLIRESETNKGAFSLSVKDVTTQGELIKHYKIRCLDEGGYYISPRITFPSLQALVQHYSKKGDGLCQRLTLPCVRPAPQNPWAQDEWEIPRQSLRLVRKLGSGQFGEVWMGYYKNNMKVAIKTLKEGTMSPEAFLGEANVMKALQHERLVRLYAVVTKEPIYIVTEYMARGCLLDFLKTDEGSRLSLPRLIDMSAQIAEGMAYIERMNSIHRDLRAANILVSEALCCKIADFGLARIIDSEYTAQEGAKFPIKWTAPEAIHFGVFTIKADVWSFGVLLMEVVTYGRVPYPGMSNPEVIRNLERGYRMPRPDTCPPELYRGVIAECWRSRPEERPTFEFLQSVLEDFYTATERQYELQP
Method: as §1, §2, §3, §4, §5, §6, §7

tyrosinase = assay: Western blot, tyrosinase levels; assay type: cell-based, human; settings: YUSIK, YUKIM and YUPEET; 0.5 µM for 20 hrs
Method: We used standard techniques to identify changes in intracellular signaling in response to various treatments. Briefly, melanoma cells were incubated with test compounds, using DMSO as a control, collected by scraping on ice, and lysed in RIPA buffer supplemented with protease and phosphatase inhibitors (MA #78428, and #78425, respectively, Thermo Fisher Scientific, Waltham, MA). Protein concentrations were measured with the BioRad kit (Bio-Rad Laboratories, Hercules, CA), SDS sample buffer was added, extracts were heated at 95°C, sonicated and centrifuged. Cell extracts (20 µg/lane) were fractionated in 3%–8% or 4–12 % tris-acetate gel (NP0006, NuPAGE Life Technologies). […]

YUSIK melanoma cells = assay: CellTiter-Glo Luminescent Cell Viability Assay; assay type: cell-based, human
Method: (§8) The melanoma cells were grown in OptiMEM (Invitrogen, Carlsbad, CA) supplemented with 5% fetal calf serum and antibiotics. The normal human melanocytes (NBMEL) were grown in medium supplemented with bFGF, IBMX and dbcAMP [32]. Most of the Yale melanoma cell lines were characterized by next-generation sequencing (Supplementary Table 2).
(§9) Cell proliferation was measured with the CellTiter-Glo® Luminescent Cell Viability Assay (Promega Corporation, Madison, WI). Melanoma cells were seeded in 96-well plates in triplicate or quadruplet wells, with increasing concentrations of kinase inhibitors for 72 hrs. The rate of proliferation was also tested after knockdown of different SRC-family kinases (SFK) with hairpin lentivirus shRNA as indicated. […] The statistical significance of synergism of response to drug combinations was evaluated by following Chou and Talalay algorithm. See also details in Supplementary Material.

YUSEEP melanoma cells = assay: CellTiter-Glo Luminescent Cell Viability Assay; assay type: cell-based, human; settings: growth response
Method: as §8, §9

YUROB melanoma cells = assay: CellTiter-Glo Luminescent Cell Viability Assay; assay type: cell-based, human
Method: as §8, §9

YUPEET melanoma cells = assay: CellTiter-Glo Luminescent Cell Viability Assay; assay type: cell-based, human
Method: as §8, §9

YUGASP melanoma cells = assay: CellTiter-Glo Luminescent Cell Viability Assay; assay type: cell-based, human; settings: growth response
Method: as §8, §9

YUSIT1 melanoma cells = assay: CellTiter-Glo Luminescent Cell Viability Assay; assay type: cell-based, human
Method: as §8, §9

pERK T202/Y204 = assay: Western blot, phospho-MEK and phospho-ERK; assay type: cell-based, human; settings: melanoma cells; 0.5 µM or 1 µM, 2-72 hours
Method: We used standard techniques to identify changes in intracellular signaling in response to various treatments. Briefly, melanoma cells were incubated with test compounds, using DMSO as a control, collected by scraping on ice, and lysed in RIPA buffer supplemented with protease and phosphatase inhibitors (MA #78428, and #78425, respectively, Thermo Fisher Scientific, Waltham, MA). Protein concentrations were measured with the BioRad kit (Bio-Rad Laboratories, Hercules, CA), SDS sample buffer was added, extracts were heated at 95°C, sonicated and centrifuged. Cell extracts (20 µg/lane) were fractionated in 3%–8% or 4–12 % tris-acetate gel (NP0006, NuPAGE Life Technologies). We probed with the following primary antibodies: phospho-SRC Tyr416 (CST #2101S), pSRC Tyr527 (#2105), SRC (#2108), pPI3K p85 Y458/p55 Y199 (#4228), LYN (C13F9, #2796), FYN (#4023), phospho-MEK1/2 pSer217/221 (#9121), MEK1/2, phospho-ERK2 pThr202/Tyr204 (#9101), ERK1/2 (#9107), phospho-p38 kinase T180/Y182 (#9216), p38 kinase (#9212), PP2A (#2259), pSHP2 Y542 (#3751), SHP2 (D50F2, #3397), ERBB2 (D8F12 XP(R), #4290), phospho-ERBB2 Y1196 (D66B7 #6942), MYC (D84C12, #5605); GAPDH (14C10, #2118), all from Cell Signaling Technology, Beverly, MA; phospho-PP2A Y307 (AF3989), and MITF (clone D5, #AF5769) from R&D Systems, Inc., Minneapolis, MN; p27KIP1 (#10241) and YES (#610375) from BD Biosciences, San Jose, CA; Cyclin D1 (#04-221) and β-actin (mouse mAb A5316) from MilliporeSigma, St. Louis, MO; PI3K Antibody (p85 alpha, NSJ R30480) from Bioreagents, 9921 Carmel Mountain Rd #352, San Diego, CA. All antibodies were used at the concentrations recommended by the manufacturers.

T1 sequence (P11802 whole entry): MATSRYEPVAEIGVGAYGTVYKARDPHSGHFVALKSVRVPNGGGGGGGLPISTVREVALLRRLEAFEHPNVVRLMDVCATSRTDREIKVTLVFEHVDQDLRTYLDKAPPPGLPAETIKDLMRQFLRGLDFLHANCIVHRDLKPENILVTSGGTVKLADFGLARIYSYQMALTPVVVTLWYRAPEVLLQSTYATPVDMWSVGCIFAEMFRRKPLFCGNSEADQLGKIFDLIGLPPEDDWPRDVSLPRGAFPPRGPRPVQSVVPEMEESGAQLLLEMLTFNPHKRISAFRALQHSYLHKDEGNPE
T1 sequence (P24385 whole entry partner): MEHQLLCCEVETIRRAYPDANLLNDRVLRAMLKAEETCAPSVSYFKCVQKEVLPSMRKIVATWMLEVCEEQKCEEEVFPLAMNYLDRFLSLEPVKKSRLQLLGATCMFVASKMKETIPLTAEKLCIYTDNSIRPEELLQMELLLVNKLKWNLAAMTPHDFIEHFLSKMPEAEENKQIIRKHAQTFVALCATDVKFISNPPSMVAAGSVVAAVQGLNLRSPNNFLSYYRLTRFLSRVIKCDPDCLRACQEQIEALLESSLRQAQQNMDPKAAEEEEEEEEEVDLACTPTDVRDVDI

Structure (SMILES): Nc1ncnc2c1c(-c1ccc(Oc3ccccc3)cc1)nn2C[C@@H]1SSC[C@@H]1O [SAB298, (3S, 4S)-3-((4-amino-3-(4-phenoxyphenyl)-1H-pyrazolo[3,4-d]pyrimidin-1-yl)methyl)-1,2-dithiolan-4-ol]
- IC50 (CDK4/Cyclin D1): > 10000 nM
- IC50 (BRAF): > 10000 nM
- IC50 (BLK): 6.5 nM
- tyrosinase levels (tyrosinase): suppressed the levels of tyrosinase
- IC50 (YUSIK melanoma cells; Homo sapiens, 72 h, YUSIK, BRAF V600E, cell viability, 72 hrs, read-out: IC50): 129 nM
- IC50 (YUSIK melanoma cells; Homo sapiens, YUSIK BRAF V600E, Variation 2 (0 effect omitted), read-out: Dm (dose for median effect, median-effect equation)): 155 nM
- IC50 (YUSIK melanoma cells; Homo sapiens, YUSIK BRAFV600E, Variation 1 (0 effect coded 1E-6), read-out: Dm (dose for median effect, median-effect equation)): 864 nM
- IC50 (YUSIK melanoma cells; YUSIK, BRAF V600E, cell viability, 72 hrs, read-out: IC50): 141 nM
- AUC1 (YUSIK melanoma cells; YUSIK, growth response): 540
- AUC2 (YUSIK melanoma cells; YUSIK, growth response): 23
- AUC1 (YUSEEP melanoma cells): 292
- AUC2 (YUSEEP melanoma cells): 40
- IC50 (YUROB melanoma cells; Homo sapiens, 72 h, YUROB, HRAS Q61K, cell viability, 72 hrs, read-out: IC50): 696 nM
- IC50 (YUROB melanoma cells; Homo sapiens, YUROB HRAS Q61K, Variation 2 (0 effect omitted), read-out: Dm (dose for median effect, median-effect equation)): 1860 nM
- IC50 (YUROB melanoma cells; Homo sapiens, YUROB HRASQ61K, Variation 1 (0 effect coded 1E-6), read-out: Dm (dose for median effect, median-effect equation)): 5180 nM
- IC50 (YUROB melanoma cells; YUROB, HRAS Q61K, cell viability, 72 hrs, read-out: IC50): 1250 nM
- AUC1 (YUROB melanoma cells; YUROB, growth response): 148
- AUC2 (YUROB melanoma cells; YUROB, growth response): 9
- IC50 (YUPEET melanoma cells; Homo sapiens, BRAF V600E, cell viability, 72 hrs): 55 nM
- AUC1 (YUPEET melanoma cells; growth response): 672
- AUC2 (YUPEET melanoma cells; growth response): 7
- AUC1 (YUGASP melanoma cells): 119
- AUC2 (YUGASP melanoma cells): 103
- IC50 (YUSIT1 melanoma cells; Homo sapiens, YUSIT1, BRAF V600K, cell viability, 72 hrs): 238 nM
- AUC1 (YUSIT1 melanoma cells; YUSIT1, growth response): 166
- AUC2 (YUSIT1 melanoma cells; YUSIT1, growth response): 32
- phospho-MEK and phospho-ERK (pERK T202/Y204) levels (pERK T202/Y204): increased, rather than decreased
